From the supplement of paper PMC11061612

Assays:
Experiment in all cases: combination Emax (second highest fraction inhibited in the dose matrix, 72 h); higher = more inhibition; extreme values may be limits of the assay
[1] = system: GCIY (Gastric Carcinoma)
Method in brief: (§1)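 Bliss excess equals the observed combination effect minus the expected value EA + EB − EA·EB, where EA and EB are the effects of each agent alone. Combination Emax is the second-highest inhibition within the matrix. Inhibition was scaled from CellTiter-Glo 2.0 luminescence, with 0 set by vehicle wells and 1 by blank wells, after 72 hours of two-drug dosing of cells plated in 1536-well plates.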

[2] = system: COR-L105 (Lung Adenocarcinoma)
Method in brief: as §1

[3] = system: BC-1 (B-Cell Non-Hodgkin's Lymphoma)
Method in brief: as §1

[4] = system: RPMI-8402 (T-Lymphoblastic Leukemia)
Method in brief: as §1

[5] = system: SK-MEL-24 (Melanoma)
Method in brief: as §1

[6] = system: NCI-H1435 (Non-Small Cell Lung Carcinoma)
Method in brief: as §1

[7] = system: NCI-H1944 (Lung Adenocarcinoma)
Method in brief: as §1

[8] = system: TK (B-Cell Non-Hodgkin's Lymphoma)
Method in brief: as §1

[9] = system: BT-474 (Breast Carcinoma)
Method in brief: as §1

[10] = system: DK-MG (Glioblastoma)
Method in brief: as §1

[11] = system: HT-1197 (Bladder Carcinoma)
Method in brief: as §1

[12] = system: NCI-H1975 (Lung Adenocarcinoma)
Method in brief: as §1

[13] = system: GRANTA-519 (B-Cell Non-Hodgkin's Lymphoma)
Method in brief: as §1

[14] = system: JURL-MK1 (Chronic Myelogenous Leukemia)
Method in brief: as §1

[15] = system: C2BBe1 (Colorectal Carcinoma)
Method in brief: as §1

[16] = system: SCC90 (Head and Neck Carcinoma)
Method in brief: as §1

[17] = system: SK-N-DZ (Neuroblastoma)
Method in brief: as §1

[18] = system: TOV-21G (Ovarian Carcinoma)
Method in brief: as §1

[19] = system: HT-144 (Melanoma)
Method in brief: as §1

[20] = system: SUP-HD1 (Hodgkin's Lymphoma)
Method in brief: as §1

C=CCn1c(=O)c2cnc(Nc3ccc(N4CCN(C)CC4)cc3)nc2n1-c1cccc(C(C)(C)O)n1 [AZD1775] + Nc1ccn([C@@H]2O[C@H](CO)[C@@H](O)C2(F)F)c(=O)n1 [Gemcitabine] (first compound max 1 µM, partner max 0.3 µM)
combination Emax [1]: 0.764
combination Emax [2]: 0.428
combination Emax [3]: 0.995
combination Emax [4]: 1
combination Emax [5]: 0.793
combination Emax [6]: 0.345

CN(CCO)CC[C@H](CSc1ccccc1)Nc1ccc(S(=O)(=O)NC(=O)c2ccc(N3CCC([C@@H](O)c4ccccc4-c4ccc(Cl)cc4)CC3)cc2)cc1S(=O)(=O)C(F)(F)F [AZD4320] + CS(=O)(=O)CCNCc1ccc(-c2ccc3ncnc(Nc4ccc(OCc5cccc(F)c5)c(Cl)c4)c3c2)o1 [Lapatinib] (first compound max 1 µM, 7x7, partner max 10 µM)
combination Emax [1]: 0.956
combination Emax [2]: 0.917
combination Emax [3]: 0.961
combination Emax [4]: 0.988
combination Emax [5]: 0.942
combination Emax [6]: 0.953

COc1nnc2ccc(N3CCC(c4ccc(OCCN5CCN(C)C(=O)[C@H]5C)cc4)CC3)nn12 [AZD5153] + CN(CC[C@H](CSC1=CC=CC=C1)NC2=C(C=C(C=C2)S(=O)(=O)NC(=O)C3=CC=C(C=C3)N4CCC(CC4)[C@H](C5=CC=CC=C5C6=CC=C(C=C6)Cl)O)S(=O)(=O)C(F)(F)F)CCO [AZD4320] (first compound max 1 µM, 7x7, partner max 1 µM)
combination Emax [7]: 0.616
combination Emax [8]: 1
combination Emax [9]: 0.531
combination Emax [10]: 0.614
combination Emax [11]: 0.845
combination Emax [12]: 0.643
combination Emax [13]: 0.986
combination Emax [14]: 0.994
combination Emax [15]: 0.611
combination Emax [16]: 0.588
combination Emax [17]: 0.922
combination Emax [18]: 0.807
combination Emax [19]: 0.454
combination Emax [20]: 0.988

Cc1c2c(nn1C)CSCc1cc(n(C)n1)CSc1cc(c3ccccc3c1)OCCCc1c(C(=O)O)n(C)c3c-2c(Cl)ccc13 [AZD5991] + CC(=O)O[C@H]1C(=O)[C@@]2(C)[C@H]([C@H](OC(=O)c3ccccc3)[C@]3(O)C[C@H](OC(=O)[C@H](O)[C@@H](NC(=O)c4ccccc4)c4ccccc4)C(C)=C1C3(C)C)[C@]1(OC(C)=O)CO[C@@H]1C[C@@H]2O [Paclitaxel] (first compound max 1 µM, 7x7, partner max 3 µM)
combination Emax [1]: 0.686
combination Emax [2]: 0.183
combination Emax [3]: 1
combination Emax [4]: 1
combination Emax [5]: 0.692
combination Emax [6]: 0.219

Cc1c2c(nn1C)CSCc1cc(n(C)n1)CSc1cc(c3ccccc3c1)OCCCc1c(C(=O)O)n(C)c3c-2c(Cl)ccc13 [AZD5991] + CS(=O)(=O)CCNCc1ccc(-c2ccc3ncnc(Nc4ccc(OCc5cccc(F)c5)c(Cl)c4)c3c2)o1 [Lapatinib] (first compound max 1 µM, 7x7, partner max 10 µM)
combination Emax [1]: 0.447
combination Emax [2]: 0.688
combination Emax [3]: 1
combination Emax [4]: 0.955
combination Emax [5]: 0.806
combination Emax [6]: 0.219

Cc1c2c(nn1C)CSCc1cc(n(C)n1)CSc1cc(c3ccccc3c1)OCCCc1c(C(=O)O)n(C)c3c-2c(Cl)ccc13 [AZD5991] + Cc1cc2ncnn2cc1Nc1ncc2c(n1)n(C1CCOCC1)c(=O)n2C [AZD7648] (first compound max 1 µM, 7x7, partner max 10 µM)
combination Emax [7]: 0.384
combination Emax [1]: 0.526
combination Emax [8]: 0.204
combination Emax [9]: 0.301
combination Emax [10]: 0.509
combination Emax [2]: 0.33
combination Emax [3]: 1
combination Emax [11]: 0.267
combination Emax [12]: 0.46
combination Emax [4]: 0.836
combination Emax [5]: 0.232
combination Emax [13]: 0.214
combination Emax [14]: 0.773
combination Emax [15]: 0.356
combination Emax [16]: 0.937
combination Emax [17]: 0.207
combination Emax [19]: 0.885
combination Emax [6]: 0.211
combination Emax [20]: 0.576

C[C@@H]1COCCN1c1cc(C2([S@](C)(=N)=O)CC2)nc(-c2ccnc3[nH]ccc23)n1 [AZD6738] + C1CC(C1)(C(=O)[O-])C(=O)[O-].N.N.[Pt+2] [Carboplatin] (first compound max 10 µM, 7x7, partner max 10 µM)
combination Emax [1]: 0.643
combination Emax [2]: 0.323
combination Emax [3]: 0.849
combination Emax [4]: 0.967
combination Emax [5]: 0.36
combination Emax [6]: 0.136

C[C@@H]1COCCN1c1cc(C2([S@](C)(=N)=O)CC2)nc(-c2ccnc3[nH]ccc23)n1 [AZD6738] + Nc1ccn([C@@H]2O[C@H](CO)[C@@H](O)C2(F)F)c(=O)n1 [Gemcitabine] (first compound max 10 µM, 7x7, partner max 0.3 µM)
combination Emax [1]: 0.774
combination Emax [2]: 0.543
combination Emax [3]: 0.985
combination Emax [4]: 1
combination Emax [5]: 0.841
combination Emax [6]: 0.411

C[C@@H](Nc1cc(F)cc(F)c1)c1cc(C(=O)N(C)C)cc2c(=O)cc(N3CCOCC3)oc12 [AZD8186] + CC(=O)c1c(C)c2cnc(Nc3ccc(N4CCNCC4)cn3)nc2n(C2CCCC2)c1=O [Palbociclib] (first compound max 10 µM, 7x7, partner max 10 µM)
combination Emax [1]: 0.662
combination Emax [2]: 0.392
combination Emax [3]: 0.93
combination Emax [4]: 0.9
combination Emax [5]: 0.449
combination Emax [6]: 0.361

C[C@@H](Oc1cc(-c2cnn(C3CCNCC3)c2)cnc1N)c1c(Cl)ccc(F)c1Cl [Crizotinib] + CC1=C(C(=CC=C1)Cl)NC(=O)C2=CN=C(S2)NC3=CC(=NC(=N3)C)N4CCN(CC4)CCO [Dasatinib] (first compound max 10 µM, 7x7, partner max 2 µM)
combination Emax [1]: 0.863
combination Emax [2]: 0.481
combination Emax [3]: 0.94
combination Emax [4]: 0.971
combination Emax [5]: 0.871
combination Emax [6]: 0.255

CS(=O)(=O)CCNCc1ccc(-c2ccc3ncnc(Nc4ccc(OCc5cccc(F)c5)c(Cl)c4)c3c2)o1 [Lapatinib] + Cn1cnc2c(F)c(Nc3ccc(Br)cc3Cl)c(C(=O)NOCCO)cc21 [Selumetinib] (first compound max 10 µM, 7x7, partner max 10 µM)
combination Emax [1]: 0.543
combination Emax [2]: 0.682
combination Emax [3]: 0.787
combination Emax [4]: 0.924
combination Emax [5]: 0.853
combination Emax [6]: 0.559

CS(=O)(=O)CCNCc1ccc(-c2ccc3ncnc(Nc4ccc(OCc5cccc(F)c5)c(Cl)c4)c3c2)o1 [Lapatinib] + NC1(c2ccc(-c3nc4ccn5c(=O)[nH]nc5c4cc3-c3ccccc3)cc2)CCC1 [MK-2206] (first compound max 10 µM, 7x7, partner max 10 µM)
combination Emax [7]: 0.941
combination Emax [1]: 0.934
combination Emax [2]: 0.825
combination Emax [3]: 0.957
combination Emax [4]: 1
combination Emax [5]: 0.949
combination Emax [16]: 0.962
combination Emax [6]: 0.665

O=C(c1cc(Cc2n[nH]c(=O)c3ccccc23)ccc1F)N1CCN(C(=O)C2CC2)CC1 [Olaparib] + CC1(C)CCC(CN2CCN(c3ccc(C(=O)NS(=O)(=O)c4ccc(NCC5CCOCC5)c([N+](=O)[O-])c4)c(Oc4cnc5[nH]ccc5c4)c3)CC2)=C(c2ccc(Cl)cc2)C1 [Venetoclax] (first compound max 10 µM, 7x7, partner max 1 µM)
combination Emax [1]: 0.119
combination Emax [2]: 0.128
combination Emax [3]: 0.252
combination Emax [4]: 0.53
combination Emax [5]: 0.0984
combination Emax [6]: 0.117

O=C(c1cc(Cc2n[nH]c(=O)c3ccccc23)ccc1F)N1CCN(C(=O)C2CC2)CC1 [Olaparib] + CN(CC[C@H](CSC1=CC=CC=C1)NC2=C(C=C(C=C2)S(=O)(=O)NC(=O)C3=CC=C(C=C3)N4CCC(CC4)[C@H](C5=CC=CC=C5C6=CC=C(C=C6)Cl)O)S(=O)(=O)C(F)(F)F)CCO [AZD4320] (first compound max 10 µM, 7x7, partner max 1 µM)
combination Emax [1]: 0.643
combination Emax [2]: 0.219
combination Emax [3]: 0.348
combination Emax [4]: 0.935
combination Emax [5]: 0.177
combination Emax [6]: 0.729

O=C(c1cc(Cc2n[nH]c(=O)c3ccccc23)ccc1F)N1CCN(C(=O)C2CC2)CC1 [Olaparib] + Cc1c2c(nn1C)CSCc1cc(n(C)n1)CSc1cc(c3ccccc3c1)OCCCc1c(C(=O)O)n(C)c3c-2c(Cl)ccc13 [AZD5991] (first compound max 10 µM, 7x7, partner max 1 µM)
combination Emax [1]: 0.181
combination Emax [2]: 0.0887
combination Emax [3]: 1
combination Emax [4]: 0.857
combination Emax [5]: 0.0746
combination Emax [6]: 0.117

CCc1c2c(nc3ccc(O)cc13)-c1cc3c(c(=O)n1C2)COC(=O)[C@]3(O)CC [SN-38] + O=C(c1cc(Cc2n[nH]c(=O)c3ccccc23)ccc1F)N1CCN(C(=O)C2CC2)CC1 [Olaparib] (first compound max 0.3 µM, 7x7, partner max 10 µM)
combination Emax [7]: 0.634
combination Emax [1]: 0.779
combination Emax [10]: 0.259
combination Emax [2]: 0.401
combination Emax [3]: 1
combination Emax [11]: 0.35
combination Emax [12]: 0.545
combination Emax [4]: 1
combination Emax [5]: 0.775
combination Emax [14]: 1
combination Emax [16]: 0.632
combination Emax [6]: 0.326
combination Emax [20]: 0.895

CC1(C)CCC(CN2CCN(c3ccc(C(=O)NS(=O)(=O)c4ccc(NCC5CCOCC5)c([N+](=O)[O-])c4)c(Oc4cnc5[nH]ccc5c4)c3)CC2)=C(c2ccc(Cl)cc2)C1 [Venetoclax] + CS(=O)(=O)CCNCc1ccc(-c2ccc3ncnc(Nc4ccc(OCc5cccc(F)c5)c(Cl)c4)c3c2)o1 [Lapatinib] (first compound max 1 µM, 7x7, partner max 10 µM)
combination Emax [1]: 0.276
combination Emax [2]: 0.587
combination Emax [3]: 0.904
combination Emax [4]: 0.839
combination Emax [5]: 0.683
combination Emax [6]: 0.195
